Results from ChEMBL document CHEMBL1201862, “PubChem BioAssay data set” (2004).
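Protocol summary: plate cells (96-well), add compound at 5 concentrations, incubate 48 h, interpolate endpoints linearly. GI50 = concentration required for 50% inhibition of growth.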 Activity calls are given as the source filed them. Rule as the data show it: active = GI50 up to about 1.1 µM and inactive = higher.

Experiments:
Experiment in all cases: growth of human tumour cells (NCI), 48 h
SK-MEL-2 = system: SK-MEL-2
NCI-H460 = system: NCI-H460
HOP-62 = system: HOP-62
SN12C = system: SN12C
UO-31 = system: UO-31
SNB-19 = system: SNB-19
SF-268 = system: SF-268
KM12 = system: KM12
RPMI-8226 = system: RPMI-8226
CAKI-1 = system: CAKI-1
A498 = system: A498
M14 = system: M14
UACC-62 = system: UACC-62
SK-MEL-5 = system: SK-MEL-5
OVCAR-3 = system: OVCAR-3
HCT-15 = system: HCT-15
U-251 = system: U-251

Compound	GI50 (SK-MEL-2)	GI50 (NCI-H460)	GI50 (HOP-62)	GI50 (SN12C)	GI50 (UO-31)	GI50 (SNB-19)	GI50 (SF-268)	GI50 (KM12)	GI50 (RPMI-8226)	GI50 (CAKI-1)	GI50 (A498)	GI50 (M14)	GI50 (UACC-62)	GI50 (SK-MEL-5)	GI50 (OVCAR-3)	GI50 (HCT-15) [µM]	GI50 (U-251)
O=c1[nH]c(=O)n(C2CC(O)C(CO)O2)cc1C(F)(C(F)(F)F)C(F)(F)F (stereo not drawn)	> 100 µM (inactive)	> 100 µM (inactive)	> 100 µM (inactive)	> 100 µM (inactive)	> 100 µM (inactive)	> 100 µM (inactive)	> 100 µM (inactive)	> 100 µM (inactive)	45.6 µM (inactive)	> 100 µM (inactive)	> 100 µM (inactive)	> 100 µM (inactive)	> 100 µM (inactive)	> 100 µM (inactive)	> 100 µM (inactive)	> 100	> 100 µM (inactive)
CN(C)c1ccc(/C=c2\sc3nnc(-c4ccco4)n3c2=O)cc1	> 100 µM (inactive)	> 100 µM (inactive)	> 100 µM (inactive)	> 100 µM (inactive)	> 100 µM (inactive)	> 100 µM (inactive)	> 100 µM (inactive)	> 100 µM (inactive)	> 100 µM (inactive)	> 100 µM (inactive)	> 100 µM (inactive)	> 100 µM (inactive)	> 100 µM (inactive)	> 100 µM (inactive)	> 100 µM (inactive)	–	57.8 µM (inactive)
COc1nc(NC2OC(COC(C)=O)C(OC(C)=O)C(OC(C)=O)C2OC(C)=O)c2c(OC(C)=O)c(C)c(=O)oc2n1 (stereo not drawn)	> 100 µM (inactive)	1.67 µM (inactive)	> 100 µM (inactive)	> 100 µM (inactive)	> 100 µM (inactive)	> 100 µM (inactive)	–	> 100 µM (inactive)	> 100 µM (inactive)	> 100 µM (inactive)	1.75 µM (inactive)	> 100 µM (inactive)	> 100 µM (inactive)	> 100 µM (inactive)	> 100 µM (inactive)	> 100	> 100 µM (inactive)
OCC(CO)C1c2cccc3ccc4cccc1c4c23	> 100 µM (inactive)	> 100 µM (inactive)	> 100 µM (inactive)	> 100 µM (inactive)	62.5 µM (inactive)	> 100 µM (inactive)	> 100 µM (inactive)	> 100 µM (inactive)	> 100 µM (inactive)	> 100 µM (inactive)	> 100 µM (inactive)	> 100 µM (inactive)	> 100 µM (inactive)	> 100 µM (inactive)	> 100 µM (inactive)	–	> 100 µM (inactive)
COc1cc2c(oc(=O)c3c4oc([Si](C)(C)C)cc4cc(OC)c23)c2cccc(O)c12	> 100 µM (inactive)	> 100 µM (inactive)	> 100 µM (inactive)	> 100 µM (inactive)	> 100 µM (inactive)	> 100 µM (inactive)	> 100 µM (inactive)	> 100 µM (inactive)	> 100 µM (inactive)	> 100 µM (inactive)	> 100 µM (inactive)	> 100 µM (inactive)	> 100 µM (inactive)	> 100 µM (inactive)	> 100 µM (inactive)	> 100	> 100 µM (inactive)
CC(C)CC12CC3CCC(CNC1=O)C32C (stereo not drawn)	> 100 µM (inactive)	> 100 µM (inactive)	> 100 µM (inactive)	> 100 µM (inactive)	> 100 µM (inactive)	> 100 µM (inactive)	> 100 µM (inactive)	> 100 µM (inactive)	49.9 µM (inactive)	> 100 µM (inactive)	> 100 µM (inactive)	> 100 µM (inactive)	> 100 µM (inactive)	> 100 µM (inactive)	> 100 µM (inactive)	–	> 100 µM (inactive)
